From US10221139B2, “Inhibitors of histone demethylases” (Gilead Sciences, Inc., priority 2012, dated 2019)

What was measured:
GASC1 (KDM4C) = molecular target: T1, GASC1 (KDM4C) (Homo sapiens, UniProt Q9H3R0); assay: Immunofluorescence assay in U2OS cells transfected with pCMVHA JMJD2C (H3K9me3 mark); type: cell-based; conditions: 20 hours
T1 construct: Full length; host or cells: U2OS
T1 sequence (Q9H3R0 1-1056): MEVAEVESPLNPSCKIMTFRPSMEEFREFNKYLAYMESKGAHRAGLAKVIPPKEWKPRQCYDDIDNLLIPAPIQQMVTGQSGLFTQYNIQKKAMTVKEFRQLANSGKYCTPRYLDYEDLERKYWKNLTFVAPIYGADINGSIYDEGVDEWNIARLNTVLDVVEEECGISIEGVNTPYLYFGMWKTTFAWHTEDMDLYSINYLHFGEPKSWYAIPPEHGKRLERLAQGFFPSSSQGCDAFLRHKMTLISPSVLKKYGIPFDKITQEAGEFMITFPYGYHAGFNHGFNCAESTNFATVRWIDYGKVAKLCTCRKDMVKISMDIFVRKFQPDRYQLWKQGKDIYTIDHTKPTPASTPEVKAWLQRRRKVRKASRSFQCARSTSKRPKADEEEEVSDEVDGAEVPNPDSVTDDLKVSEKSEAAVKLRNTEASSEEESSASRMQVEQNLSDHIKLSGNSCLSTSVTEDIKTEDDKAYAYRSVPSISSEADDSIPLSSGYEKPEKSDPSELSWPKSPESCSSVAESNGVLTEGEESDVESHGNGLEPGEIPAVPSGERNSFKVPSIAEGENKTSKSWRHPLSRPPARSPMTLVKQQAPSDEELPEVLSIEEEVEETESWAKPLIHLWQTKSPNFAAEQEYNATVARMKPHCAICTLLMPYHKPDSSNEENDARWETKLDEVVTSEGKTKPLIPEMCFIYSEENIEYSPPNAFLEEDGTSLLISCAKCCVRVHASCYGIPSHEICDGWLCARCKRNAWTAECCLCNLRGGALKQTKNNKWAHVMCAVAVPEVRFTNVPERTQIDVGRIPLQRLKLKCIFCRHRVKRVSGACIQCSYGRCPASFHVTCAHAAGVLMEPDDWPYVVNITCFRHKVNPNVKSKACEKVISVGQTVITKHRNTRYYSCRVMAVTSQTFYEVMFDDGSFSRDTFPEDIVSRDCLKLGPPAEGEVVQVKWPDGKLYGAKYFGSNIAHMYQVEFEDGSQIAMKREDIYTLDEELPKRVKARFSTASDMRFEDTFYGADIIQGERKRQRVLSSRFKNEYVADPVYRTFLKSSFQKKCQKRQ
Description: (§1) U2OS cells were seeded 24 hours before transfection. Transfection was performed with Fugene HD transfection reagent as recommended by the manufacturer. 6 hours after transfection, the cells were harvested and seeded into multi well plates into media containing compound. The media used was DMEM containing 5% FBS and pen/strep. 20 hours after incubation of cells with compounds, the cells were washed once in PBS, harvested by fixation with formaldehyde 4% aqueous solution, and washed 2 times in PBS. Subsequently, the cells were permeabilized in PBS with 0.2% Triton X-100 for 10 min at room temperature. Blocking was performed in PBS with 0.2% Triton X-100 and 5% FBS for 45 min at room temperature. The cells were incubated with primary antibodies diluted 1 μg/ml in blocking solution over night at 4° C. The primary antibodies used in the assays were HA.11 (Covance, MMS-101P) and the antibody detecting the mark specified in the Table 6 below. After incubation with primary antibodies, the cells were washed 3 times with PBS, incubated with secondary antibodies diluted 1:1000 (Alexa fluor 594 goat anti rabbit IgG, Invitrogen, A11012; Alexa flour 488 donkey anti mouse IgG, Invitrogen, A21202) and Hoechst, 20 μg/ml (Sigma, 33342) in blocking solution, and washed again 3 times with PBS. Finally, PBS was added and high throughput imaging and analysis were performed by an IN Cell Analyzer 1000 (GE Healthcare). The robot software analyzed individual cells and divided these into HA^+ (transfected cells) and HA^− (non-transfected cells). The IC50 values in Table 7 below were based on an average measure of the staining of the mark specified in the Table 6 below in the transfected cells.

PLU1 (KDM5B) = molecular target: T2, PLU1 (KDM5B) (Homo sapiens, UniProt Q9UGL1); assay: Immunofluorescence assay in U2OS cells transfected with pCMVHA PLU1 (H3K4me2 mark); type: cell-based; conditions: 20 hours
T2 construct: (1-752); host or cells: U2OS
T2 sequence (Q9UGL1 1-752): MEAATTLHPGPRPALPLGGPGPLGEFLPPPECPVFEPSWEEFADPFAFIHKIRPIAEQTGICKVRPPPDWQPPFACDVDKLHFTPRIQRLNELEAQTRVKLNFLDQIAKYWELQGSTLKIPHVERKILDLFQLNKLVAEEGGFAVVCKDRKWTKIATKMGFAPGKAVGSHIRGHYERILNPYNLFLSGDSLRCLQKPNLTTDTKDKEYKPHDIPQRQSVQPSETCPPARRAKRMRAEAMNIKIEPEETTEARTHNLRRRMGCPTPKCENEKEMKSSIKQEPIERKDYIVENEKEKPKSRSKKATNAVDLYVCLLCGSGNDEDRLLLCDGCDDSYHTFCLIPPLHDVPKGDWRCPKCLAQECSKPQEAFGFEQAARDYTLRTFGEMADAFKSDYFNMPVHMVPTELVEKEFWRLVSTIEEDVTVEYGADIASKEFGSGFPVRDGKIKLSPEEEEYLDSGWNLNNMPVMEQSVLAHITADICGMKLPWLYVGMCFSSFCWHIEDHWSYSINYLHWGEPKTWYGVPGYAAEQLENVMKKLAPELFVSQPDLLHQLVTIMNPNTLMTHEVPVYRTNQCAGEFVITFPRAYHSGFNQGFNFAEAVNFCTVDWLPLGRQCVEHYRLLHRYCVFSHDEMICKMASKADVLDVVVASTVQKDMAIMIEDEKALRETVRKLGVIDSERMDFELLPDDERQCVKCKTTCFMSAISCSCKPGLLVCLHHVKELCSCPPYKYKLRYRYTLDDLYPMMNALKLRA
Description: as §1

CCCCN(C)C(=O)CNCc1cc(C(=O)O)ccn1 [drawing 306, 2-[({[butyl(methyl)carbamoyl]methyl}amino)methyl] pyridine-4-carboxylic acid]
IC50 (GASC1 (KDM4C)): 1 to 50 µM
IC50 (PLU1 (KDM5B)): > 50 µM

C#CCN(C)Cc1cc(C(=O)O)ccn1 [drawing 302, 2-{[methyl(prop-2-yn-1-yl)amino]methyl}pyridine-4-carboxylic acid]
IC50 (GASC1 (KDM4C)): > 50 µM
IC50 (PLU1 (KDM5B)): > 50 µM

O=C(O)c1ccnc(CNCCCn2ccnc2)c1 [drawing 296, 2-({[3-(1H-imidazol-1-yl)propyl]amino}methyl) pyridine-4-carboxylic acid]
IC50 (GASC1 (KDM4C)): > 50 µM
IC50 (PLU1 (KDM5B)): 1 to 50 µM

CN(CCCc1nccn1C)C(=O)CNCc1cc(C(=O)O)ccn1 [drawing 312, 2-{[({methyl[3-(1-methyl-1H-imidazol-2-yl)propyl]carbamoyl}methyl)amino]methyl}pyridine-4-carboxylic acid]
IC50 (GASC1 (KDM4C)): 1 to 50 µM
IC50 (PLU1 (KDM5B)): 1 to 50 µM

Cn1c(CNCc2cc(C(=O)O)ccn2)nc2ccccc21 [drawing 307, 2-({[(1-methyl-1H-1,3-benzodiazol-2-yl)methyl)amino}methyl) pyridine-4-carboxylic acid]
IC50 (GASC1 (KDM4C)): > 50 µM
IC50 (PLU1 (KDM5B)): 1 to 50 µM

O=C(O)c1ccnc(CNCCCN2CCCC2)c1 [drawing 325, 2-({[3-(pyrrolidin-1-yl)propyl]amino}methyl)pyridine-4-carboxylic acid]
IC50 (GASC1 (KDM4C)): 1 to 50 µM
IC50 (PLU1 (KDM5B)): 1 to 50 µM

O=C(O)c1ccnc(CNC[C@@H](O)CO)c1 [drawing 298, 2-({[(2R)-2,3-dihydroxypropyl]amino}methyl)pyridine-4-carboxylic acid]
IC50 (GASC1 (KDM4C)): > 50 µM
IC50 (PLU1 (KDM5B)): > 50 µM

O=C(O)c1ccnc(CNCC2CC2)c1 [drawing 299, 2-{[(cyclopropylmethyl)amino]methyl}pyridine-4-carboxylic acid]
IC50 (GASC1 (KDM4C)): > 50 µM
IC50 (PLU1 (KDM5B)): 1 to 50 µM

COC(=O)c1ccnc(CNCCCN2CCCC2)c1 [drawing 326, methyl 2-({[3-(pyrrolidin-1-yl)propyl]amino}methyl) pyridine-4-carboxylate]
IC50 (GASC1 (KDM4C)): 1 to 50 µM
IC50 (PLU1 (KDM5B)): 1 to 50 µM

O=C(CNCc1cc(C(=O)O)ccn1)NC1CCN(Cc2ccc(-c3ccccc3)o2)CC1 [drawing 319, 2-({[({1-[(5-phenylfuran-2-yl)methyl]piperidin-4-yl}carbamoyl)methyl]amino}methyl)pyridine-4-carboxylic acid]
IC50 (GASC1 (KDM4C)): > 50 µM
IC50 (PLU1 (KDM5B)): > 50 µM

O=C(O)c1ccnc(CNCC[C@@H]2CCCN2Cc2ccccc2)c1 [2-[({2-[(2S)-1-benzylpyrrolidin-2-yl]ethyl}amino)methyl] pyridine-4-carboxylic acid]
IC50 (GASC1 (KDM4C)): > 50 µM
IC50 (PLU1 (KDM5B)): 1 to 50 µM

CN(CCC(N)=O)C(=O)CNCc1cc(C(=O)O)ccn1 [drawing 311, 2-[({[(2-carbamoylethyl)(methyl)carbamoyl]methyl}amino)methyl]pyridine-4-carboxylic acid]
IC50 (GASC1 (KDM4C)): > 50 µM

CN(Cc1ccnn1C)C(=O)CNCc1cc(C(=O)O)ccn1 [drawing 314, 2-{[({methyl[(1-methyl-1H-pyrazol-5-yl)methyl]carbamoyl}methyl)amino]methyl}pyridine-4-carboxylic acid]
IC50 (GASC1 (KDM4C)): > 50 µM
IC50 (PLU1 (KDM5B)): > 50 µM

CCN(CC)CCCCNCc1cc(C(=O)OCCN(C)C)ccn1 [drawing 331, 2-(dimethylamino) ethyl 2-({[4-(diethylamino)butyl]amino}methyl)pyridine-4-carboxylate]
IC50 (GASC1 (KDM4C)): 1 to 50 µM
IC50 (PLU1 (KDM5B)): 1 to 50 µM

C=CCN(CC=C)C(=O)CNCc1cc(C(=O)O)ccn1 [drawing 309, 2-[({[bis(prop-2-en-1-yl)carbamoyl]methyl}amino)methyl]pyridine-4-carboxylic acid]
IC50 (GASC1 (KDM4C)): 1 to 50 µM
IC50 (PLU1 (KDM5B)): 1 to 50 µM

O=C(CNCc1cc(C(=O)O)ccn1)NC1CCN(CCCc2ccccc2)CC1 [drawing 317, 2-{[({[1-(3-phenylpropyl)piperidin-4-yl]carbamoyl}methyl)amino]methyl}pyridine-4-carboxylic acid]
IC50 (GASC1 (KDM4C)): > 50 µM
IC50 (PLU1 (KDM5B)): > 50 µM

CCOC(=O)c1ccccc1OC(=O)c1ccnc(CNCCCCN(CC)CC)c1 [drawing 330, 2-(ethoxycarbonyl) phenyl 2-({[4-(diethylamino)butyl]amino}methyl)pyridine-4-carboxylate]
IC50 (GASC1 (KDM4C)): 1 to 50 µM
IC50 (PLU1 (KDM5B)): < 1 µM

CCN1CCCC1CNC(=O)CNCc1cc(C(=O)O)ccn1 (centres unmarked) [drawing 313, 2-{[({[(1-ethylpyrrolidin-2-yl)methyl]carbamoyl}methyl)amino]methyl}pyridine-4-carboxylic acid]
IC50 (GASC1 (KDM4C)): > 50 µM
IC50 (PLU1 (KDM5B)): 1 to 50 µM

CN(C)CCN(C)Cc1cc(C(=O)O)ccn1 [drawing 301, 2-({[2-(dimethylamino)ethyl](methyl)amino}methyl)pyridine-4-carboxylic acid]
IC50 (GASC1 (KDM4C)): > 50 µM
IC50 (PLU1 (KDM5B)): > 50 µM

CCN(CC)CCCCNCc1cc(C(=O)O)ccn1 [drawing 327, 2-({[4-(diethylamino)butyl]amino}methyl)pyridine-4-carboxylic acid]
IC50 (GASC1 (KDM4C)): 1 to 50 µM
IC50 (PLU1 (KDM5B)): 1 to 50 µM

COCCN1CCN(C(=O)CNCc2cc(C(=O)O)ccn2)CC1 [drawing 308, 2-[({2-[4-(2-methoxyethyl)piperazin-1-yl]-2-oxoethyl}amino)methyl] pyridine-4-carboxylic acid]
IC50 (GASC1 (KDM4C)): > 50 µM
IC50 (PLU1 (KDM5B)): > 50 µM

CN(C)CCNCc1cc(C(=O)O)ccn1 [drawing 297, 2-({[2-(dimethylamino)ethyl]amino}methyl)pyridine-4-carboxylic acid]
IC50 (GASC1 (KDM4C)): 1 to 50 µM
IC50 (PLU1 (KDM5B)): 1 to 50 µM

O=C(O)c1ccnc(CN[C@@H]2CCN(CCCc3ccccc3)C2)c1 [drawing 315, 2-({[(3R)-1-(3-phenylpropyl)pyrrolidin-3-yl]amino}methyl)pyridine-4-carboxylic acid]
IC50 (GASC1 (KDM4C)): > 50 µM
IC50 (PLU1 (KDM5B)): 1 to 50 µM

O=C(O)c1ccnc(CNCC(=O)N2CCCC2)c1 [drawing 305, 2-({[2-oxo-2-(pyrrolidin-1-yl)ethyl]amino}methyl) pyridine-4-carboxylic acid]
IC50 (GASC1 (KDM4C)): 1 to 50 µM
IC50 (PLU1 (KDM5B)): > 50 µM

CCN(CC)CCCCNCc1cc(C(=O)Oc2ccc(OC)cc2)ccn1 [drawing 329, 4-methoxyphenyl 2-({[4-(diethylamino)butyl]amino}methyl)pyridine-4-carboxylate]
IC50 (GASC1 (KDM4C)): 1 to 50 µM
IC50 (PLU1 (KDM5B)): < 1 µM

O=C(O)c1ccnc(CNCc2ccco2)c1 [drawing 303, 2-{[(furan-2-ylmethyl)amino]methyl}pyridine-4-carboxylic acid]
IC50 (GASC1 (KDM4C)): 1 to 50 µM
